Measured values: ChEMBL document CHEMBL4387705, “Synthesis of new arylsulfonylspiroimidazolidine-2',4'-diones and study of their effect on stimulation of insulin release from MIN6 cell line, inhibition of human aldose reductase, sorbitol accumulations in various tissues and oxidative stress” (Eur J Med Chem, 2019)

Assays:
[1] = system: MIN6; assay: Effect on cell morphology in mouse MIN6 cells assessed as cell viability up to 400 uM incubated for 24 hrs; assay type: cell-based; conditions: min6, 24 h
[2] = Cytotoxicity against HEK293 cells assessed as reduction in cell viability at 25 uM incubated for 48 hrs by MTT assay relative to control; assay type: cell-based; conditions: human, read-out: INH
[3] = Cytotoxicity against HEK293 cells assessed as reduction in cell viability at 100 uM incubated for 48 hrs by MTT assay relative to control; assay type: cell-based; conditions: human, read-out: INH
[4] = Antioxidant activity assessed as DPPH radical scavenging activity at 50 uM incubated for 30 mins under dark condition by spectrophotometry; assay type: functional
[5] = target: Aldo-keto reductase family 1 member B1 (Homo sapiens, UniProt P15121); assay: Inhibition of human recombinant ALR2 expressed in Escherichia coli using DL-glyceraldehyde as substrate and NADPH preincubated for 5 mins followed by substrate addition and measured after 30 mins at 2 mins interval by spectrophotometry relative to control
[6] = system: MIN6; assay: Antidiabetic activity in mouse MIN6 cells after 35 passages assessed as increase in insulin secretion at 100 uM in presence of 25 mM glucose by ELISA relative to control; assay type: functional
[7] = Antioxidant activity assessed as DPPH radical scavenging activity at 10 uM incubated for 30 mins under dark condition by spectrophotometry; assay type: functional
[8] = Cytotoxicity against HEK293 cells assessed as reduction in cell viability at 50 uM incubated for 48 hrs by MTT assay relative to control; assay type: cell-based; conditions: human, read-out: INH
[9] = target: T1, Aldo-keto reductase family 1 member B1 (Rattus norvegicus, UniProt P07943); assay: (§1) Inhibition of ALR2 in rat erythrocytes assessed as reduction in sorbitol accumulation incubated for 3 hrs in presence of 28 mM glucose by gas chromatographic analysis relative to control; assay type: cell-based
[10] = target: Aldo-keto reductase family 1 member B1 (Rattus norvegicus) (UniProt P07943); assay: as §1; assay type: cell-based
[11] = system: MIN6; assay: Cytotoxicity against mouse MIN6 cells assessed as reduction in cell viability up to 200 uM incubated for 24 hrs by MTT assay; assay type: cell-based; conditions: min6, 24 h
[12] = system: MIN6; assay: Antidiabetic activity in mouse MIN6 cells after 83 passages assessed as increase in insulin secretion at 100 uM in presence of 25 mM glucose by ELISA relative to control; assay type: functional
[13] = target: T1, Aldo-keto reductase family 1 member B1; assay: (§2) Inhibition of ALR2 in rat sciatic nerve assessed as reduction in sorbitol accumulation incubated for 3 hrs in presence of 28 mM glucose by gas chromatographic analysis
[14] = target: Aldo-keto reductase family 1 member B1 (Rattus norvegicus) (UniProt P07943); assay: as §2
[15] = Cytotoxicity against mouse MIN6 cells assessed as cell viability at 400 uM incubated for 24 hrs by MTT assay; assay type: cell-based; conditions: read-out: Activity
[16] = Cytotoxicity against HEK293 cells assessed as reduction in cell viability at 200 uM incubated for 48 hrs by MTT assay relative to control; assay type: cell-based; conditions: human, read-out: INH
[17] = target: T1, Aldo-keto reductase family 1 member B1; assay: (§3) Inhibition of ALR2 in rat lens assessed as reduction in sorbitol accumulation incubated for 3 hrs in presence of 28 mM glucose by gas chromatographic analysis relative to control
[18] = target: Aldo-keto reductase family 1 member B1 (Rattus norvegicus) (UniProt P07943); assay: as §3
[19] = Antioxidant activity assessed as DPPH radical scavenging activity at 100 uM incubated for 30 mins under dark condition by spectrophotometry; assay type: functional

## Cc1ccc(S(=O)(=O)N2C(=O)NC(=O)C23CCCc2ccccc23)cc1 (stereo unspecified)
[1]
  Activity: Non-Toxic
[2]
  cytotoxicity at 48 h, 25 µM: 13.9%
[3]
  cytotoxicity at 48 h, 100 µM: 22.6%
[4]
  inhibition: 37.5%
[5]
  IC50: 5.02 µM
[6]
  Activity: 308%
[7]
  inhibition: 33.3%
[8]
  cytotoxicity at 48 h, 50 µM: 22.9%
[9]
  IC50: 1.34 µM
[10]
  inhibition: Dose-dependent effect
[11]
  Activity: Non-Toxic
[12]
  Activity: 222%
[13]
  IC50: 1.33 µM
[14]
  inhibition: Dose-dependent effect
[15]
  viability at 24 h, 400 µM: 81%
[16]
  cytotoxicity at 48 h, 200 µM: 32%
[17]
  IC50: 1.15 µM
[18]
  inhibition: Dose-dependent effect
[19]
  inhibition: 42.4%

## CC(/C=C1\SC(=S)N(CC(=O)O)C1=O)=C\c1ccccc1
[2]
  cytotoxicity at 48 h, 25 µM: 10.3%
[3]
  cytotoxicity at 48 h, 100 µM: 13.7%
[8]
  cytotoxicity at 48 h, 50 µM: 12%
[16]
  cytotoxicity at 48 h, 200 µM: 18.3%

## O=C1NC2(CCCc3ccccc32)C(=O)N1S(=O)(=O)c1ccc(F)cc1 (stereo unspecified)
[1]
  Activity: Non-Toxic
[2]
  cytotoxicity at 48 h, 25 µM: 11.4%
[3]
  cytotoxicity at 48 h, 100 µM: 31.9%
[6]
  Activity: 111%
[8]
  cytotoxicity at 48 h, 50 µM: 26.1%
[10]
  inhibition: Dose-dependent effect
[11]
  Activity: Non-Toxic
[14]
  inhibition: Dose-dependent effect
[15]
  viability at 24 h, 400 µM: 81%
[16]
  cytotoxicity at 48 h, 200 µM: 36.5%
[18]
  inhibition: Dose-dependent effect
[19]
  inhibition: 2.51%

## O=C1NC2(CCCc3ccccc32)C(=O)N1S(=O)(=O)c1ccc([N+](=O)[O-])cc1 (stereo unspecified)
[1]
  Activity: Non-Toxic
[2]
  cytotoxicity at 48 h, 25 µM: 9.37%
[3]
  cytotoxicity at 48 h, 100 µM: 19.2%
[4]
  inhibition: 67.3%
[6]
  Activity: 121%
[7]
  inhibition: 44.8%
[8]
  cytotoxicity at 48 h, 50 µM: 14.2%
[10]
  inhibition: Dose-dependent effect
[11]
  Activity: Non-Toxic
[14]
  inhibition: Dose-dependent effect
[15]
  viability at 24 h, 400 µM: 81%
[16]
  cytotoxicity at 48 h, 200 µM: 28.4%
[18]
  inhibition: Dose-dependent effect
[19]
  inhibition: 77.6%

## O=C1NC(=O)C2(CCCc3ccccc32)N1S(=O)(=O)c1ccc(Cl)cc1 (stereo unspecified)
[1]
  Activity: Non-Toxic
[2]
  cytotoxicity at 48 h, 25 µM: 10.8%
[3]
  cytotoxicity at 48 h, 100 µM: 19.9%
[5]
  IC50: 6.15 µM
[6]
  Activity: 140%
[8]
  cytotoxicity at 48 h, 50 µM: 12.6%
[9]
  IC50: 3.8 µM
[10]
  inhibition: Dose-dependent effect
[11]
  Activity: Non-Toxic
[12]
  Activity: 159%
[13]
  IC50: 4.34 µM
[14]
  inhibition: Dose-dependent effect
[15]
  viability at 24 h, 400 µM: 81%
[16]
  cytotoxicity at 48 h, 200 µM: 33.3%
[17]
  IC50: 3.86 µM
[18]
  inhibition: Dose-dependent effect
[19]
  inhibition: 8.48%

## Cc1ccc(S(=O)(=O)N2C(=O)NC3(CCCc4ccccc43)C2=O)cc1 (stereo unspecified)
[1]
  Activity: Non-Toxic
[2]
  cytotoxicity at 48 h, 25 µM: 18.2%
[3]
  cytotoxicity at 48 h, 100 µM: 20.2%
[4]
  inhibition: 37.3%
[5]
  IC50: 1.8 µM
[6]
  Activity: 275%
[7]
  inhibition: 23.2%
[8]
  cytotoxicity at 48 h, 50 µM: 19.1%
[9]
  IC50: 1.7 µM
[10]
  inhibition: Dose-dependent effect
[11]
  Activity: Non-Toxic
[12]
  Activity: 177%
[13]
  IC50: 1.72 µM
[14]
  inhibition: Dose-dependent effect
[15]
  viability at 24 h, 400 µM: 81%
[16]
  cytotoxicity at 48 h, 200 µM: 21.5%
[17]
  IC50: 1.56 µM
[18]
  inhibition: Dose-dependent effect
[19]
  inhibition: 42.4%

## O=C1NC2(CCCc3ccccc32)C(=O)N1S(=O)(=O)c1ccc(Cl)cc1 (stereo unspecified)
[1]
  Activity: Non-Toxic
[2]
  cytotoxicity at 48 h, 25 µM: 12.7%
[3]
  cytotoxicity at 48 h, 100 µM: 18.2%
[5]
  IC50: 40.2 µM
[6]
  Activity: 145%
[8]
  cytotoxicity at 48 h, 50 µM: 16.1%
[10]
  inhibition: Dose-dependent effect
[11]
  Activity: Non-Toxic
[14]
  inhibition: Dose-dependent effect
[15]
  viability at 24 h, 400 µM: 81%
[16]
  cytotoxicity at 48 h, 200 µM: 23.3%
[18]
  inhibition: Dose-dependent effect
[19]
  inhibition: 8.44%

## O=C1NC(=O)C2(CCCc3ccccc32)N1S(=O)(=O)c1ccc([N+](=O)[O-])cc1 (stereo unspecified)
[1]
  Activity: Non-Toxic
[2]
  cytotoxicity at 48 h, 25 µM: 23.6%
[3]
  cytotoxicity at 48 h, 100 µM: 39.2%
[4]
  inhibition: 77.3%
[5]
  IC50: 34.5 µM
[6]
  Activity: 145%
[7]
  inhibition: 70.5%
[8]
  cytotoxicity at 48 h, 50 µM: 36%
[10]
  inhibition: Dose-dependent effect
[11]
  Activity: Non-Toxic
[14]
  inhibition: Dose-dependent effect
[15]
  viability at 24 h, 400 µM: 81%
[16]
  cytotoxicity at 48 h, 200 µM: 53.4%
[18]
  inhibition: Dose-dependent effect
[19]
  inhibition: 87.6%

## Cc1c(C)c2c(c(C)c1O)CCC(C)(C(=O)O)O2 (stereo unspecified)
[4]
  inhibition: 84.5%
[7]
  inhibition: 82.5%
[19]
  inhibition: 94.2%

## O=C1NC(=O)C2(CCCc3ccccc32)N1S(=O)(=O)c1ccc(F)cc1 (stereo unspecified)
[1]
  Activity: Non-Toxic
[2]
  cytotoxicity at 48 h, 25 µM: 11.9%
[3]
  cytotoxicity at 48 h, 100 µM: 25.1%
[5]
  IC50: 5.84 µM
[6]
  Activity: 250%
[8]
  cytotoxicity at 48 h, 50 µM: 18.9%
[9]
  IC50: 5.49 µM
[10]
  inhibition: Dose-dependent effect
[11]
  Activity: Non-Toxic
[12]
  Activity: 164%
[13]
  IC50: 7.37 µM
[14]
  inhibition: Dose-dependent effect
[15]
  viability at 24 h, 400 µM: 81%
[16]
  cytotoxicity at 48 h, 200 µM: 36.3%
[17]
  IC50: 6.25 µM
[18]
  inhibition: Dose-dependent effect
[19]
  inhibition: 2.52%

## CC(=O)c1ccc(S(=O)(=O)N2C(=O)NC3(CCCc4ccccc43)C2=O)cc1 (stereo unspecified)
[1]
  Activity: Non-Toxic
[2]
  cytotoxicity at 48 h, 25 µM: 17.5%
[3]
  cytotoxicity at 48 h, 100 µM: 42%
[4]
  inhibition: 39.8%
[5]
  IC50: 37.7 µM
[6]
  Activity: 118%
[7]
  inhibition: 25.1%
[8]
  cytotoxicity at 48 h, 50 µM: 24.4%
[9]
  IC50: 25.7 µM
[10]
  inhibition: Dose-dependent effect
[11]
  Activity: Non-Toxic
[13]
  IC50: 22.7 µM
[14]
  inhibition: Dose-dependent effect
[15]
  viability at 24 h, 400 µM: 81%
[16]
  cytotoxicity at 48 h, 200 µM: 55.5%
[17]
  IC50: 34.8 µM
[18]
  inhibition: Dose-dependent effect
[19]
  inhibition: 75.3%
